Patent US8877770B2, “Polymorph of rifaximin and process for the preparation thereof” (Clarochem Ireland Limited, priority 2011, dated 2014)
“Also recorded” adds a separate entry of the source.

Legend:
[1] = Stability testing following conditioning in a humid atmosphere (80% RH, 24 hours); format: physicochemical; settings: 80% relative humidity
Description: Stability testing of the polymorph of Rifaximin following conditioning in a humid atmosphere.
Two samples of the polymorphic form κ of Rifaximin: 63/11A, which was obtained by means of the procedure of example 4, and 69/11B, which was obtained by means of the procedure of example 1, were maintained for 24 hours in an environment of relative humidity equal to 80%. At the end of the conditioning, an increase of approximately 3%, ascribable to the adsorption of water from the environment, was recorded.

[2] = Exposure at room temperature to variable relative humidity for 12 days and to RH 80% for 5 months; format: physicochemical
Description: The polymorph obtained with the procedure described in example 2 was exposed at room temperature to variable relative humidity for a time period of 12 days, and then for a period of 5 months. When the humidity was increased, there were increases in the mass as shown in Table 2 for 12 days and Table 3 for 5 months.

CO[C@H]1/C=C/O[C@@]2(C)Oc3c(C)c(O)c4c(O)c(c5c(nc6cc(C)ccn65)c4c3C2=O)NC(=O)/C(C)=C\C=C\[C@H](C)[C@H](O)[C@@H](C)[C@@H](O)[C@@H](C)[C@H](OC(C)=O)[C@@H]1C [polymorph κ, (2S,16Z,18E,20S,21S,22R,23R,24R,25S,26S,27S,28E)-5,6,21,23,25-pentahydroxy-27-methoxy-2,4,11,16,20,22,24,26-octamethyl-2,7-(epoxypentadeca-[1,11,13]-trienimmino)-benzofuro-[4,5-e]-pirido-[1,2-α]-benzimidazol-1,15(2H)-dione,25-acetate]
XRPD pattern pre/post-conditioning [1]: substantially identical to one another; also recorded: without registering significant changes in the XRPD pattern
increase of mass of the sample (adsorption of water) [1]: about 3%
increase of mass of the sample (adsorption of water) ([1]; listed as 63/11A): approximately 3%
increase of mass of the sample (adsorption of water) ([1]; listed as 69/11B): approximately 3%
% water after exposure to 80% humidity (RH 80%) ([2]; 1 month): 4.38%
% water after exposure to 80% humidity (RH 80%) ([2]; 2 months): 4.45%
% water after exposure to 80% humidity (RH 80%) ([2]; 5 months): 4.55%
value at which the increase of mass becomes stable ([2]; 80% humidity, stable after 4 days, unchanged after 5 months): approximately 4.5%
% water after exposure to 80% humidity (RH 80%) ([2]; 4 days): 4.38%
% water after exposure to 80% humidity (RH 80%) ([2]; 7 days): 4.44%
% water after exposure to 80% humidity (RH 80%) ([2]; 14 days): 4.37%
% water following exposure to 80% and 45% humidity ([2]; RH 80% 4 days, total days 4): 4.66%
DRX pattern after conditioning ([2]; RH 80%, 5 months): correspond to that one shown in FIG. 1
nature of the water adsorption process ([2]; cycling between RH 80% and RH 45%, 12 days): superficial and reversible
% water after exposure to 80% humidity (RH 80%) ([2]; initial): 1.85%
% water following exposure to 80% and 45% humidity ([2]; initial, total days 0): 1.85%
maximum adsorption ([2]; prolonged exposure to relative humidity of 80%): 4.5%
% water following exposure to 80% and 45% humidity ([2]; then RH 45% 1 day, total days 12): 3.43%
% water following exposure to 80% and 45% humidity ([2]; then RH 45% 3 days, total days 7): 3.40%
% water following exposure to 80% and 45% humidity ([2]; then RH 80% 4 days, total days 11): 4.52%
